Values of other authors in patent US10881104B2, “Arthropod control composition, formulation, and method” (priority 2013, dated 2021).

System: D. variabilis
Conditions: unformulated; 2 h after application

CCCCCCCCCC(C)=O [Formulation 2-undecanone, 2-undecanone]
repellency: 74%
